From patent US11618880B2, “Compositions comprising bacterial strains and use thereof in controlling pathogenic microorganisms” (Better Air International Limited, priority 2018, dated 2023) come the findings set out here.

What all share (assay): Agar well diffusion assay, antagonism of molds
What all share (format): cell-based
Conditions in all cases: PDA plates, 25° C. 72 hours

Assay [1] deals with Cladosporium sphaerospermum Penzig (ATCC MYA-4645). Here is the method:
(§1) The agar well diffusion assay was performed to evaluate the antagonistic activity of B. amyloliquefaciens 298 against the growth of pathogenic bacteria including Escherichia coli ATCC 22922, Pseudomonas aeruginosa, B. cereus ATCC 27348, Staphylococcus aureus ATCC 11335, Salmonella Typhimurium ATCC 14028 and Listeria innocua ATCC 3586. […] Brain Heart Infusion (BHI) Agar was used for the antagonism against pathogenic microorganisms while the Potato Dextrose Agar (PDA) was used for evaluation against molds. Reference pathogens were prepared using BHI broth at 37° C. for 18 hours while B. amyloliquefaciens 298 was grown using LB broth at 37° C. for 18 hours. Molds were prepared using PDA at 25° C. with 85% HR for 7 days. Mold spores, pathogens and B. amyloliquefaciens 298 were harvested and resuspended in PBS. Pathogens and B. amyloliquefaciens 298 were adjusted to an optical density of 0.2 and 100 uL of pathogen suspended in PBS was spread on BHI agar plates. The same amount of mold spore suspension was inoculated on PDA. Wells were made in all the plates and 20 μL of B. amyloliquefaciens 298 suspensions were inoculated in the wells while the BHI plates were incubated at 37° C. for 24 hours and PDA plates at 25° C. for 72 hours.

For assay [2], the system named is Penicillium chrysogenum Thom (ATCC MYA-4644). On the procedure: as §1
The subject of assay [3] is Alternaria alternata (Fries) Keissler (ATCC MYA-4642). Here is the method:
as §1

As to `OO` [Hydrogen peroxide 10%, hydrogen peroxide], in assay [1], the “Inhibition zone, Cladosporium sphaerospermum Penzig (ATCC MYA-4645)” value was determined as 12 mm. Moreover, the “Inhibition zone, Penicillium chrysogenum Thom (ATCC MYA-4644)” value in assay [2] turned out to be 10 mm. Also, the “Inhibition zone, Alternaria alternata (Fries) Keissler (ATCC MYA-4642)” value in assay [3] was 8 mm.
